In PubChem BioAssay (NCI):
Where “and” joins values, the source holds several entries; their conditions need not be identical. Identical values can stand only once.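 Tested at 5 concentrations; 48 h exposure; 96-well plates; endpoints linearly interpolated, else capped at highest concentration. Abbreviation: GI50, concentration required for 50% inhibition of growth. TGI: concentration producing complete growth inhibition.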

Tests used:
Assay in all cases: NCI anticancer screen, dose series, 48 h
786-0 renal = test system: 786-0 renal
A549 NSCLC = test system: A549 NSCLC
ACHN renal = test system: ACHN renal
BT-549 breast = test system: BT-549 breast
CAKI-1 renal = test system: CAKI-1 renal
CCRF-CEM leukemia = test system: CCRF-CEM leukemia
DU-145 prostate = test system: DU-145 prostate
EKVX NSCLC = test system: EKVX NSCLC
HCC-2998 colon = test system: HCC-2998 colon
HCT-116 colon = test system: HCT-116 colon
HCT-15 colon = test system: HCT-15 colon
HL-60(TB) leukemia = test system: HL-60(TB) leukemia
HOP-62 NSCLC = test system: HOP-62 NSCLC
HT29 colon = test system: HT29 colon
K-562 leukemia = test system: K-562 leukemia
KM12 colon = test system: KM12 colon
LOX IMVI melanoma = test system: LOX IMVI melanoma
M14 melanoma = test system: M14 melanoma
MCF7 breast = test system: MCF7 breast
MDA-MB-231 breast = test system: MDA-MB-231 breast
MDA-MB-435 = test system: MDA-MB-435
MOLT-4 leukemia = test system: MOLT-4 leukemia
NCI-H23 lung = test system: NCI-H23 lung
NCI-H460 lung = test system: NCI-H460 lung
NCI/ADR-RES ovarian = test system: NCI/ADR-RES ovarian
OVCAR-4 ovarian = test system: OVCAR-4 ovarian
OVCAR-5 ovarian = test system: OVCAR-5 ovarian
OVCAR-8 ovarian = test system: OVCAR-8 ovarian
PC-3 prostate = test system: PC-3 prostate
RPMI-8226 leukemia = test system: RPMI-8226 leukemia
RXF 393 renal = test system: RXF 393 renal
SF-268 CNS = test system: SF-268 CNS
SF-295 CNS = test system: SF-295 CNS
SF-539 CNS = test system: SF-539 CNS
SK-MEL-2 melanoma = test system: SK-MEL-2 melanoma
SK-MEL-5 melanoma = test system: SK-MEL-5 melanoma
SN12C renal = test system: SN12C renal
SNB-19 CNS = test system: SNB-19 CNS
SNB-75 CNS = test system: SNB-75 CNS
SR leukemia = test system: SR leukemia
SW-620 colon = test system: SW-620 colon
TK-10 renal = test system: TK-10 renal
U251 CNS = test system: U251 CNS
UO-31 renal = test system: UO-31 renal

**Q.** `COc1cc(Nc2nc3ccccc3nc2NS(=O)(=O)c2ccc(NC(=O)c3ccc(C)c(OC)c3)cc2)cc(OC)c1` was tested. Which TGI (786-0 renal) did it give?
**A.** 74.1 µM and > 7.32 µM

**Q.** And the GI50 (A549 NSCLC)?
**A.** 4.38 µM and 13.3 µM and 1.79 µM

**Q.** What about the TGI (A549 NSCLC) of the same molecule?
**A.** > 100 µM and 80.4 µM and > 9.12 µM

**Q.** What about the TGI (ACHN renal) of the same molecule?
**A.** 48.7 µM and 62.8 µM and > 10 µM

**Q.** What about the TGI (BT-549 breast) of the same molecule?
**A.** 20.9 µM and 49.2 µM and > 6.49 µM

**Q.** And the TGI (CAKI-1 renal)?
**A.** > 100 µM and 73.8 µM and > 6.67 µM

**Q.** What about the TGI (CCRF-CEM leukemia) of the same molecule?
**A.** > 100 µM and 71.6 µM and > 10 µM

**Q.** And the TGI (DU-145 prostate)?
**A.** > 100 µM

**Q.** And the GI50 (EKVX NSCLC)?
**A.** 4.62 µM and 0.935 µM

**Q.** What about the TGI (HCC-2998 colon) of the same molecule?
**A.** > 100 µM and 37.7 µM and > 8.5 µM

**Q.** And the TGI (HCT-116 colon)?
**A.** > 100 µM

**Q.** And the GI50 (HCT-15 colon)?
**A.** 4.97 µM and 19.9 µM and 2 µM

**Q.** And the TGI (HCT-15 colon)?
**A.** > 100 µM

**Q.** What about the TGI (HL-60(TB) leukemia) of the same molecule?
**A.** 38 µM and 52.9 µM and > 8.02 µM

**Q.** And the TGI (HOP-62 NSCLC)?
**A.** 25.9 µM and > 100 µM and > 9.23 µM

**Q.** What about the TGI (HT29 colon) of the same molecule?
**A.** > 100 µM

**Q.** And the GI50 (K-562 leukemia)?
**A.** 5.34 µM and 18.7 µM and > 5.29 µM

**Q.** What about the TGI (K-562 leukemia) of the same molecule?
**A.** > 100 µM and 46.4 µM and > 10 µM

**Q.** And the GI50 (KM12 colon)?
**A.** 3.62 µM and 20 µM and 2.35 µM

**Q.** What about the TGI (KM12 colon) of the same molecule?
**A.** > 100 µM

**Q.** And the TGI (LOX IMVI melanoma)?
**A.** > 100 µM

**Q.** And the TGI (M14 melanoma)?
**A.** > 100 µM and 94 µM and > 4.68 µM

**Q.** What about the TGI (MCF7 breast) of the same molecule?
**A.** > 100 µM

**Q.** What about the TGI (MDA-MB-231 breast) of the same molecule?
**A.** 46.2 µM and > 100 µM and > 7 µM

**Q.** What about the TGI (MDA-MB-435) of the same molecule?
**A.** > 100 µM and 86.2 µM and > 5.19 µM

**Q.** What about the GI50 (MOLT-4 leukemia) of the same molecule?
**A.** 4.58 µM and 14.4 µM and 2.25 µM

**Q.** And the TGI (MOLT-4 leukemia)?
**A.** 45.7 µM and 43.3 µM and > 10 µM

**Q.** What about the GI50 (NCI-H23 lung) of the same molecule?
**A.** 2.27 µM and 12.5 µM and 1.33 µM

**Q.** What about the TGI (NCI-H23 lung) of the same molecule?
**A.** 17.3 µM and 58.9 µM and > 10 µM

**Q.** And the TGI (NCI-H460 lung)?
**A.** > 100 µM

**Q.** And the GI50 (NCI/ADR-RES ovarian)?
**A.** 4.36 µM and 17.7 µM and > 3.64 µM

**Q.** What about the TGI (NCI/ADR-RES ovarian) of the same molecule?
**A.** > 100 µM

**Q.** And the TGI (OVCAR-4 ovarian)?
**A.** > 100 µM

**Q.** What about the TGI (OVCAR-5 ovarian) of the same molecule?
**A.** > 100 µM

**Q.** What about the GI50 (OVCAR-8 ovarian) of the same molecule?
**A.** 4.19 µM and 20.5 µM and 2.82 µM

**Q.** And the TGI (OVCAR-8 ovarian)?
**A.** > 100 µM

**Q.** What about the TGI (PC-3 prostate) of the same molecule?
**A.** > 100 µM and 74.9 µM and > 6.71 µM

**Q.** What about the GI50 (RPMI-8226 leukemia) of the same molecule?
**A.** 3.98 µM and 12.3 µM and 1.96 µM

**Q.** What about the TGI (RPMI-8226 leukemia) of the same molecule?
**A.** 84.5 µM and 53.8 µM and > 10 µM

**Q.** And the GI50 (RXF 393 renal)?
**A.** 2.8 µM and 7.57 µM and 1.06 µM

**Q.** What about the TGI (RXF 393 renal) of the same molecule?
**A.** 14.8 µM and 33.4 µM and > 6.13 µM

**Q.** And the TGI (SF-268 CNS)?
**A.** > 100 µM

**Q.** And the GI50 (SF-295 CNS)?
**A.** 2.03 µM and 8.73 µM and 1.08 µM

**Q.** And the TGI (SF-295 CNS)?
**A.** 9.85 µM and 33.6 µM and > 5.22 µM

**Q.** What about the TGI (SF-539 CNS) of the same molecule?
**A.** > 100 µM and 73.7 µM and > 6.59 µM

**Q.** What about the TGI (SK-MEL-2 melanoma) of the same molecule?
**A.** 22.6 µM and 32.8 µM and 3.83 µM

**Q.** What about the GI50 (SK-MEL-5 melanoma) of the same molecule?
**A.** 4.19 µM and 11.4 µM and 1.71 µM

**Q.** And the TGI (SK-MEL-5 melanoma)?
**A.** 38.4 µM and 28.7 µM and > 6.54 µM

**Q.** What about the TGI (SN12C renal) of the same molecule?
**A.** > 100 µM

**Q.** What about the GI50 (SNB-19 CNS) of the same molecule?
**A.** 3.14 µM and 19.8 µM and 2.3 µM

**Q.** And the TGI (SNB-19 CNS)?
**A.** 31 µM and > 100 µM and > 10 µM

**Q.** And the GI50 (SNB-75 CNS)?
**A.** 1.39 µM and 1.51 µM and 0.302 µM

**Q.** What about the TGI (SNB-75 CNS) of the same molecule?
**A.** 13.3 µM and 20 µM and 2.75 µM

**Q.** And the TGI (SR leukemia)?
**A.** 51.2 µM and 49.1 µM and > 10 µM

**Q.** And the TGI (SW-620 colon)?
**A.** > 100 µM

**Q.** And the TGI (TK-10 renal)?
**A.** 37.6 µM and 54.1 µM and > 6.03 µM

**Q.** What about the GI50 (U251 CNS) of the same molecule?
**A.** 3.71 µM and 12 µM and 2.27 µM

**Q.** What about the TGI (U251 CNS) of the same molecule?
**A.** 34.7 µM and 33.5 µM and > 10 µM

**Q.** And the TGI (UO-31 renal)?
**A.** 9.07 µM and 46.1 µM and > 5.04 µM
